Reference: ChEMBL document CHEMBL2169792, “Synthesis of new 4-thiazolidinone-, pyrazoline-, and isatin-based conjugates with promising antitumor activity” (J Med Chem, 2012)
Activity calls are given as the source filed them. The rule behind the calls is not given here.

Assays:
[1] = tested on: SNB-75; assay: Cytotoxicity against human SNB75 cells assessed as cell growth at 10 uM after 48 hrs by SRB assay; assay type: functional; conditions: SNB-75, 48 h, read-out: Activity
[2] = tested on: SF-539; assay: Cytotoxicity against human SF539 cells assessed as cell growth at 10 uM after 48 hrs by SRB assay; assay type: functional; conditions: SF-539, 48 h, read-out: Activity
[3] = tested on: Mus musculus; assay: Antitumor activity in ip dosed athymic nude mouse hollow fiber model assessed as reduction of viable cell mass; assay type: functional, organism-based
[4] = Cytotoxicity against human non-small cell lung cancer cells after 48 hrs by SRB assay; assay type: functional; conditions: Cancer cell lines; for CC50: read-out: LC50 (the source's name)
[5] = Cytotoxicity against human CNS cancer cells after 48 hrs by SRB assay; assay type: functional; conditions: Cancer cell lines
[6] = Cytotoxicity against human melanoma cells after 48 hrs by SRB assay; assay type: functional; conditions: Melanoma cell; for CC50: read-out: LC50 (the source's name)
[7] = Cytotoxicity against human breast cancer cells after 48 hrs by SRB assay; assay type: functional; conditions: Cancer cell lines
[8] = Cytotoxicity against human prostate cancer cells after 48 hrs by SRB assay; assay type: functional; conditions: Cancer cell lines
[9] = Cytotoxicity against human ovarian cancer cells after 48 hrs by SRB assay; assay type: functional; conditions: Cancer cell lines
[10] = Cytotoxicity against human renal cancer cells after 48 hrs by SRB assay; assay type: functional; conditions: Cancer cell lines
[11] = Cytotoxicity against human leukemia cells after 48 hrs by SRB assay; assay type: functional; conditions: Leukemia cell; for CC50: read-out: LC50 (the source's name)
[12] = Toxicity in mouse; assay type: organism-based; conditions: in vivo
[13] = Cytotoxicity against human colon cancer cells after 48 hrs by SRB assay; assay type: functional; conditions: Cancer cell lines
[14] = tested on: TK-10; assay: Cytotoxicity against human TK10 cells assessed as cell growth at 10 uM after 48 hrs by SRB assay; assay type: functional; conditions: TK-10, 48 h, read-out: Activity
[15] = tested on: HCT-116; assay: Cytotoxicity against human HCT116 cells assessed as cell growth at 10 uM after 48 hrs by SRB assay; assay type: functional; conditions: HCT-116, 48 h, read-out: Activity

SMILES	GI50 [4] [µM]	TGI [4] [µM]	CC50 [4] [µM]	GI50 [5] [µM]	LC50 (concentration giving 50% net cell kill) [5] [µM]	TGI [5] [µM]	GI50 [6] [µM]	TGI [6] [µM]	CC50 [6] [µM]	GI50 [7] [µM]	LC50 (concentration causing 50% net cell kill) [7] [µM]	TGI [7] [µM]	GI50 [8] [µM]	LC50 [8] [µM]	TGI [8] [µM]	GI50 [9] [µM]	LC50 (concentration causing 50% net cell kill) [9] [µM]	TGI [9] [µM]	GI50 [10] [µM]	LC50 [10] [µM]	further results
O=C(O)CN1C(=O)C(n2nc(-c3ccccc3)cc2-c2ccccc2O)c2ccccc21 (stereo not given)																					growth at 10 µM [1]: 108%
COc1ccc(C2CC(c3ccccc3)=NN2C2=NC(=O)/C(=C3\C(=O)Nc4ccc(Br)cc43)S2)cc1 (stereo not given)	0.2	0.51	3.27	0.18	6.48	0.39	0.21	0.55	5.01	0.2	26.5	0.48	0.24	39.5	0.66	0.23	23.4	3.63	0.18	1.27	growth at 10 µM [2]: -55.1%; Activity [3]: inactive; TGI [10]: 0.36 µM; GI50 [11]: 0.25 µM; TGI [11]: 4.23 µM; CC50 [11]: 51 µM; MTD [12]: > 400 mg/kg; GI50 [13]: 0.19 µM; LC50 (concentration lethal to 50% of cells) [13]: 1.07 µM; TGI [13]: 0.39 µM
COc1ccc(C2CC(c3ccccc3)=NN2C2=NC(=O)/C(=C3\C(=O)N(CC(=O)O)c4ccccc43)S2)cc1 (stereo not given)																					growth at 10 µM [14]: 97.3%
O=C1N=C(N2N=C(c3ccccc3)CC2c2ccccc2O)S/C1=C1/C(=O)Nc2ccccc21 (stereo not given)	2.03	4.73	57.2	2.13	68.1	5.37	2.04	4.4	60.8	2.09	64.6	4.77	2.05	54.7	4.35	2.41	81.5	36.6	2.07	55.8	TGI [10]: 17.8 µM; GI50 [11]: 3.19 µM; TGI [11]: 48.8 µM; CC50 [11]: 100 µM; growth at 10 µM [15]: -37.4%; GI50 [13]: 1.99 µM; LC50 (concentration lethal to 50% of cells) [13]: 33.4 µM; TGI [13]: 4.22 µM
